Values after ≈ are worked out from the molar mass of the structure shown.
Legend:
[1] = system: Mycobacterium tuberculosis; assay: Antimicrobial activity against nonreplicating Mycobacterium tuberculosis 18b by resazurin microtiter assay; format: functional
[2] = system: Mycobacterium tuberculosis; assay: Antimicrobial activity against Mycobacterium tuberculosis H37Rv ATCC 27294 after 7 days by resazurin microtiter assay; format: functional; settings: H37Rv ATCC 27294, 168 h
[3] = Cytotoxicity against human HepG2 cells after 24 hrs by MTT assay; format: cell-based
[4] = Aqueous solubility of compound at pH7 for 4 hrs by HPLC analysis; format: physicochemical; settings: aqueous solution, pH 7
[5] = Selectivity index, ratio of CC50 for human HepG2 cells to MIC for Mycobacterium tuberculosis H37Rv ATCC 27294; format: toxicity, cell-based; settings: read-out: Selectivity Index
[6] = (§1) AUC (0 to t) in Balb/c mouse at 5 mg/kg, po by LC-MS/MS analysis; format: ADME, organism-based; settings: Balb/c, in vivo
[7] = Solubility of compound in phosphate buffer solution at pH 7.4 after 4 hrs by HPLC analysis; format: physicochemical
Mus musculus [8] = assay: Volume of distribution in Balb/c mouse at 5 mg/kg, po by LC-MS/MS analysis; format: ADME, organism-based; settings: in vivo
[9] = (§2) Half life in Balb/c mouse at 5 mg/kg, po by LC-MS/MS analysis; format: ADME, organism-based; settings: Balb/c, in vivo
Mus musculus [10] = assay: Toxicity in Balb/c mouse at 100 mg/kg, po; format: organism-based; settings: in vivo
Mus musculus [11] = assay: Toxicity in Balb/c mouse at 25 mg/kg, po once daily for 5 days; format: organism-based; settings: in vivo, 120 h
[12] = Tmax in Balb/c mouse at 5 mg/kg, po by LC-MS/MS analysis; format: ADME, organism-based; settings: in vivo
[13] = Solubility of compound in simulated intestinal fluid at pH 6.8 after 4 hrs by HPLC analysis; format: ADME
[14] = system: Mycobacterium tuberculosis; assay: Antitubercular activity against Mycobacterium tuberculosis H37Rv infected in Balb/c mouse assessed as decrease in bacterial load at 25 mg/kg, po once daily for 5 days (reference value: 1.61 LogCFU ); format: functional
[15] = Metabolic stability in rat liver microsomes assessed as compound remaining after 30 mins by LC-MS/MS analysis; format: ADME; settings: read-out: Stability
Mus musculus [16] = assay: Toxicity in Balb/c mouse at 20 mg/kg, po; format: organism-based; settings: in vivo
[17] = Solubility of compound in simulated gastric fluid at pH 1.2 after 4 hrs by HPLC analysis; format: ADME
[18] = Clearance in Balb/c mouse at 5 mg/kg, po by LC-MS/MS analysis; format: ADME, organism-based; settings: in vivo
[19] = Cmax in Balb/c mouse at 5 mg/kg, po by LC-MS/MS analysis; format: ADME, organism-based; set-up: dose 5 mg/kg, route oral; settings: in vivo
Mus musculus [20] = assay: as §1; format: ADME, organism-based; settings: in vivo
Mus musculus [21] = assay: as §2; format: ADME, organism-based; settings: in vivo

Row | SMILES | MIC [1] [µg/mL] | MIC90 [2] [µg/mL] | solubility at 4 h [4] [µg/mL] | other results
1 | C[C@]1(COc2ccc(N3CCC(Oc4ccc(OC(F)(F)F)cc4)CC3)cc2)Cn2cc([N+](=O)[O-])nc2O1 | 0.37 (≈ 0.692 µM) | 0.007 (≈ 0.0131 µM) | – | CC50 at 24 h [3]: 108 µg/mL (≈ 201 µM)
2 | C[C@]1(COc2ccc(NC(=O)Nc3ccccc3F)cc2)Cn2cc([N+](=O)[O-])nc2O1 | – | 1.67 (≈ 3.91 µM) | – | –
3 | C[C@]1(COc2ccc(S(=O)(=O)N3CCC(c4ccccc4)CC3)cc2)Cn2cc([N+](=O)[O-])nc2O1 | – | 0.67 (≈ 1.34 µM) | – | –
4 | CCOc1ccc(NC(=O)Nc2ccc(OC[C@@]3(C)Cn4cc([N+](=O)[O-])nc4O3)cc2)cc1 | 1 (≈ 2.21 µM) | 0.5 (≈ 1.1 µM) | 6.66 (≈ 14.7 µM) | selectivity ratio [5]: > 80; CC50 at 24 h [3]: > 20 µg/mL
5 | CC(C)(C)OC(=O)N1CCN(c2ccc(OC[C@@]3(C)Cn4cc([N+](=O)[O-])nc4O3)cc2)CC1 | – | 6.67 (≈ 14.5 µM) | – | –
6 | C[C@]1(COc2ccc(S(=O)(=O)N3CCCC3)cc2)Cn2cc([N+](=O)[O-])nc2O1 | – | 1 (≈ 2.45 µM) | – | –
7 | C[C@]1(COc2ccc(NC(=O)Nc3ccc(C(F)(F)F)cc3)cc2)Cn2cc([N+](=O)[O-])nc2O1 | – | 0.5 (≈ 1.05 µM) | < 1 | –
8 | COc1ccc(S(=O)(=O)N2CCN(c3ccc(OC[C@@]4(C)Cn5cc([N+](=O)[O-])nc5O4)cc3)CC2)cc1 | – | 0.5 (≈ 0.944 µM) | < 1 | –
9 | C[C@]1(COc2ccc(S(=O)(=O)N3CCN(c4cccc(Cl)c4)CC3)cc2)Cn2cc([N+](=O)[O-])nc2O1 | – | 0.83 (≈ 1.55 µM) | – | –
10 | CC(C)(C)c1ccc(NC(=O)Nc2ccc(OC[C@@]3(C)Cn4cc([N+](=O)[O-])nc4O3)cc2)cc1 | – | 0.09 (≈ 0.193 µM) | < 1 | –
11 | CCc1ccc(NC(=S)Nc2ccc(OC[C@@]3(C)Cn4cc([N+](=O)[O-])nc4O3)cc2)cc1 | – | 1 (≈ 2.2 µM) | – | –
12 | C[C@]1(COc2ccc(NC(=O)Nc3ccc(Cl)cc3)cc2)Cn2cc([N+](=O)[O-])nc2O1 | 4 (≈ 9.01 µM) | 0.25 (≈ 0.563 µM) | 6.66 (≈ 15 µM) | selectivity ratio [5]: > 80; CC50 at 24 h [3]: > 20 µg/mL
13 | CCOC(=O)N1CCN(S(=O)(=O)c2ccc(OC[C@@]3(C)Cn4cc([N+](=O)[O-])nc4O3)cc2)CC1 | – | 4 (≈ 8.07 µM) | – | –
14 | C[C@]1(COc2ccc(NC(=S)Nc3ccc(OC(F)(F)F)cc3)cc2)Cn2cc([N+](=O)[O-])nc2O1 | – | 0.25 (≈ 0.491 µM) | < 1 | –
15 | C[C@]1(COc2ccc(N3CCN(S(=O)(=O)c4ccccc4)CC3)cc2)Cn2cc([N+](=O)[O-])nc2O1 | – | 1 (≈ 2 µM) | – | –
16 | Cc1ccc(S(=O)(=O)N2CCN(c3ccc(OC[C@@]4(C)Cn5cc([N+](=O)[O-])nc5O4)cc3)CC2)cc1 | – | 0.5 (≈ 0.974 µM) | < 1 | –

Row | SMILES | MIC [1] [µg/mL] | MIC90 [2] [µg/mL] | solubility at 4 h [4] [µg/mL] | other results
17 | Cc1ccc(NC(=S)Nc2ccc(OC[C@@]3(C)Cn4cc([N+](=O)[O-])nc4O3)cc2)cc1 | – | 0.83 (≈ 1.89 µM) | – | –
18 | C[C@]1(COc2ccc(NC(=O)Nc3ccc(OC(F)(F)F)cc3)cc2)Cn2cc([N+](=O)[O-])nc2O1 | – | 0.67 (≈ 1.36 µM) | – | –
19 | C[C@]1(COc2ccc(S(=O)(=O)N3CCN(C(=O)c4ccccc4)CC3)cc2)Cn2cc([N+](=O)[O-])nc2O1 | – | 4 (≈ 7.58 µM) | – | –
20 | Cc1ccc(NC(=O)Nc2ccc(OC[C@@]3(C)Cn4cc([N+](=O)[O-])nc4O3)cc2)cc1 | – | 0.21 (≈ 0.496 µM) | < 1 | –
21 | COc1ccc(NC(=O)Nc2ccc(OC[C@@]3(C)Cn4cc([N+](=O)[O-])nc4O3)cc2)cc1 | – | 2 (≈ 4.55 µM) | – | –
22 | CC(C)(C)OC(=O)Nc1ccc(OC[C@@]2(C)Cn3cc([N+](=O)[O-])nc3O2)cc1 | – | 1.34 (≈ 3.43 µM) | – | –
23 | COc1ccc(NC(=S)Nc2ccc(OC[C@@]3(C)Cn4cc([N+](=O)[O-])nc4O3)cc2)cc1 | > 8 | 0.5 (≈ 1.1 µM) | 8.66 (≈ 19 µM) | selectivity ratio [5]: > 80; CC50 at 24 h [3]: > 20 µg/mL
24 | CCc1ccc(NC(=O)Nc2ccc(OC[C@@]3(C)Cn4cc([N+](=O)[O-])nc4O3)cc2)cc1 | – | 0.5 (≈ 1.14 µM) | < 1 | –
25 | C[C@]1(COc2ccc(S(=O)(=O)N3CCOCC3)cc2)Cn2cc([N+](=O)[O-])nc2O1 | 1.34 (≈ 3.16 µM) | 0.37 (≈ 0.872 µM) | 20 (≈ 47.1 µM) | AUC(0-t) [6]: 879 ng·h/mL; solubility at 4 h [7]: 20 µg/mL (≈ 47.1 µM); Vd (Mus musculus [8]): 12.97 L/kg; half-life [9]: 1.99 h; selectivity ratio [5]: > 40; Activity (Mus musculus [10]): Non-toxic; Activity (Mus musculus [11]): Non-toxic; Tmax [12]: 0.5 h; solubility at 4 h [13]: 20 µg/mL (≈ 47.1 µM); Activity [14]: 1.28 log10CFU; remaining at 0.5 h [15]: 99.3%; Activity (Mus musculus [16]): Non-toxic; solubility at 4 h [17]: 20 µg/mL (≈ 47.1 µM); CL/F [18]: 75.2 mL/min/kg; Cmax [19]: 640 ng/mL; CC50 at 24 h [3]: > 20 µg/mL
26 | C[C@]1(COc2ccc(N3CCN(S(=O)(=O)c4ccc(C(F)(F)F)cc4)CC3)cc2)Cn2cc([N+](=O)[O-])nc2O1 | – | 0.25 (≈ 0.44 µM) | < 1 | –
27 | Cc1ccccc1NC(=O)Nc1ccc(OC[C@@]2(C)Cn3cc([N+](=O)[O-])nc3O2)cc1 | – | 1 (≈ 2.36 µM) | – | –
28 | C[C@]1(COc2ccc(N3CCN(S(=O)(=O)c4ccc(F)cc4)CC3)cc2)Cn2cc([N+](=O)[O-])nc2O1 | > 8 | 0.06 (≈ 0.116 µM) | 8.33 (≈ 16.1 µM) | selectivity ratio [5]: > 333; CC50 at 24 h [3]: > 20 µg/mL
29 | C[C@]1(COc2ccc(-n3cc(COc4ccc(OC(F)(F)F)cc4)nn3)cc2)Cn2cc([N+](=O)[O-])nc2O1 | 4 (≈ 7.51 µM) | 0.12 (≈ 0.225 µM) | < 1 | AUCt (Mus musculus [20]): 7428 ng·h/mL; solubility at 4 h [7]: < 1 µg/mL; Vd (Mus musculus [8]): 0.377 L/kg; t1/2 (Mus musculus [21]): 4.01 h; selectivity ratio [5]: > 166; Activity (Mus musculus [10]): Non-toxic; Activity (Mus musculus [11]): Non-toxic; Tmax [12]: 2 h; solubility at 4 h [13]: < 1 µg/mL; remaining at 0.5 h [15]: 90.8%; Activity (Mus musculus [16]): Non-toxic; solubility at 4 h [17]: < 1 µg/mL; Cmax [19]: 540 ng/mL; CC50 at 24 h [3]: > 20 µg/mL
30 | C[C@]1(COc2ccc(S(=O)(=O)N3CCCCC3)cc2)Cn2cc([N+](=O)[O-])nc2O1 | 10.7 (≈ 25.3 µM) | 0.5 (≈ 1.18 µM) | 13.3 (≈ 31.6 µM) | selectivity ratio [5]: > 40; CC50 at 24 h [3]: > 20 µg/mL
31 | COc1c(N2CCNC(C)C2)c(F)cc2c(=O)c(C(=O)O)cn(C3CC3)c12 (configuration not stated) [GATIFLOXACIN] | 1 (≈ 2.66 µM) | – | – | –
32 | CO[C@H]1/C=C/O[C@@]2(C)Oc3c(C)c(O)c4c(O)c(c(/C=N/N5CCN(C)CC5)c(O)c4c3C2=O)NC(=O)/C(C)=C\C=C\[C@H](C)[C@H](O)[C@@H](C)[C@@H](O)[C@@H](C)[C@H](OC(C)=O)[C@@H]1C [RIFAMPIN] | 2 (≈ 2.43 µM) | 0.06 (≈ 0.0729 µM) | – | –
